Test results as given in paper PMC5464627, “Design of short peptides to block BTLA/HVEM interactions for promoting anticancer T-cell responses” (PLoS ONE, 2017).
Positions of bridges follow the written chain, without caps; N, C: chain ends.

Columns and labels:
[1] = tested on: 293T cells expressing BTLA, binding of rhHVEM-Fc; test: BTLA/HVEM interaction cell line assay (flow cytometry); assay type: cell-based; details: 293T cells expressing human BTLA pre-incubated with 5 mg/mL for 1 h at 4°C, then rhHVEM-Fc 8 μg/ml and AF647 anti-human IgG; at least two experiments in triplicate
Method: 293T cells expressing BTLA (generous gift from Dr. C. Krummenacher, University of Pennsylvania, USA) were maintained in culture with RPMI 10% FCS supplemented with 0.2 mg/ml hygromycin B. 2x10^5 293T cells expressing BTLA were incubated with […] 8μg/ml in PBS 0.5% BSA for 30min at 4°C. Cells were then washed and incubated with goat anti-human Fc conjugated with AF647 for 20min at 4°C (Jackson ImmunoResearch, #109-606-170). Inhibition of HVEM-BTLA binding by different peptides was assessed by pre-incubating the cells with the different peptides at 5 mg/ml for 1h at 4°C. BTLA expression was controlled by anti-BTLA APC-conjugated antibody (Biolegend, #344510). Maximum inhibition of binding was determined by adding anti-BTLA7.1 antibody for 1h at 4°C at 2μg/ml before adding […]. Sample acquisition was performed on the Gallios Flow-Cytometer (Beckman Coulter) and data were analyzed using the FlowJo Software (TreeStar).  Fig 7 Blocking capacity of HVEM(23-39) fragment and free amino acids in a cellular assay. 293T cells expressing human BTLA were incubated with peptides or free amino acids (5mg/mL) prior labeling with […] AF647-conjugated anti-human IgG antibody (at least two experiments in triplicate).

[2] = tested on: BTLA/HVEM interaction (BTLA-Fc coated, HVEM-Fc); test: Competitive BTLA/HVEM ELISA; assay type: binding, human; details: peptide or amino acid at 5, 1 and 0.1 mg/mL, 2 h at 37°C; relative to PBS (0%) and anti-BTLA 7.1 mAb (100%); at least two experiments in triplicate
Description: (§1) The recombinant human BTLA protein used in affinity tests was purchased form Novoprotein (Company product code: C563). For ELISA, recombinant human BTLA-Fc, HVEM-Fc as well as anti-human BTLA (#7.1) blocking monoclonal antibody (mAb) and anti-human HVEM (#11.8) non-blocking mAb were described previously. Anti-HVEM mAb was biotinylated using the Biotin Labeling Kit-NH2 (Abnova, #KA0003), according manufacturer’s instruction.
96-well round bottom plates (medium binding; Greiner Bio-One) were coated with 400 ng/well of recombinant BTLA-Fc protein in PBS (50 μL/well) and incubated overnight at 4°C. Wells were washed twice with PBS-T (phosphate buffer saline with 0.1% Tween-20, pH 7.4) and blocked with 1% milk in PBS-T for 1 hour at 37°C. […] Maximum binding of HVEM to BTLA was controlled by adding 1% milk/PBS-T to negative control wells, whereas maximum inhibition was monitored by adding anti-BTLA 7.1 mAb (0.1 μg/well). Next, the plate was washed and incubated with recombinant HVEM-Fc protein at 400 ng/well in 1% milk/PBS-T for 1 hour at 37°C. Biotinylated anti-HVEM 11.8 antibody was then added (biotinylated preparation diluted at 1/10 000 in 1% milk/PBS-T) and incubated for 1 hour at 37°C. Streptavidin horseradish peroxidase (Dako) was finally added at a 1/8000 dilution in 1% BSA/PBS-T for 30 min at 37°C and detected with TMB (Biorad). The substrate reaction was blocked with 0.2 M H2SO4 and the absorbance was read at 450 nm and 630 nm. […] Statistical analysis of the results was performed using the one-way analysis of variance (one-way ANOVA).

[3] = tested on: recombinant human BTLA protein; test: Microcolumn affinity test (BTLA-Sepharose, MALDI-MS of fractions); assay type: binding; details: for Interaction with BTLA immobilised in microcolumn (in words): BTLA-Sepharose microcolumn, 2 h at 25°C, pH 7.4, MS of elution fraction; for Elution [M+H]+1 (peptide signal in elution fraction = complex with BTLA formed; - = no signal): BTLA immobilised on NHS-Sepharose microcolumn, peptide incubated 2 h at 25°C in NH4HCO3 pH 7.4, eluted with 0.1% TFA, MALDI TOF/TOF
Method: as §1
The immobilization of BTLA protein in a microcolumn was performed using the NHS-activated acid-coupled Sepharose 4B (Sigma Aldrich). BTLA protein was dissolved in 100 μl of coupling buffer (0.2 M NaHCO3, 0.5 M NaCl, pH 8.3) and was added to 0.06 g NHS-activated Sepharose in 100 μl of coupling buffer. The coupling reaction was performed for 1 hour in 25°C and the mixture was transferred into the microcolumn (MoBiTec, Goettingen, Germany). The microcolumn with immobilized protein was washed alternately with 10 ml of solution blocking buffer (0.1 M amino ethanol, 0.5 M NaCl, pH 8.3) and washing buffer (0.1 M CH3COONa, 0.5 M NaCl, pH 4). This step was repeated 4 times. The microcolumn was stored in PBS (pH 7.4).
Peptide affinity assay using NHS-activated Sepharose microcolumn was already described elsewhere. The peptides were added onto BTLA-Sepharose column equilibrated in ammonium hydrogen carbonate (NH4HCO3, pH 7.4) and incubated for 2 h at 25°C with gentle shaking. After this time the unbound peptide was removed and the column was washed with […] NH4HCO3 and 20 ml of H2O. Dissociation of the protein—peptide complex was performed using 0.1% TFA in H2O (2 x 0.5 ml) by 15 minutes. All fractions were analyzed using mass spectrometry (MALDI TOF/TOF™ 5800, AB SCIEX).
Fig 2 Microcolumn affinity test. Microcolumn affinity test results for binding of HVEM(23–39) fragment to BTLA: (A) supernatant, (B) last wash and (C) elution fractions. The MS measurements were done with the use of MALDI TOF/TOF 5800 (ABSciex, Germany). As a matrix α-cyano-4-hydroxycinnamic acid (CHCA, 10 mg/ml, Sigma-Aldrich) was used. The measurements were done in reflector positive mass mode with previous mass calibration with commercial standard peptide mixture (The Peptide Mass Standards Kit for Calibration of AB SCIEX MALDI-TOF™ Instruments).

[4] = Ellman's assay of free thiols; assay type: physicochemical; details: for Presence of free thiol groups: DTNB, 0.1 M sodium phosphate pH 7.4, 1 mM EDTA, absorbance at 412 nm
Method: The presence of free thiols was investigated using Ellman’s assay. DTNB (Sigma Aldrich) was first dissolved in reaction buffer (0.1 M sodium phosphate, pH 7.4, containing 1 mM EDTA) at a concentration of 4 mg/ml. Then peptides and recombinant BTLA-Fc, alone or mixed together (ratio 1:1) were added in DTNB reaction buffer. After 15 minutes of incubation, the SH content of protein samples was then assessed by the measurement of absorbance at 412 nm. For each sample, the absorbance value from the blank was subtracted.

[5] = target: T1, recombinant human BTLA-Fc (human, UniProt Q7Z6A9 31-157); test: ELISA; competitive: BTLA-Fc coated at 400 ng/well; peptides in 1% milk/PBS-T 2 h at 37°C; washed; HVEM-Fc 400 ng/well 1 h at 37°C; detected with biotinylated anti-HVEM 11.8 and streptavidin-HRP; percent inhibition relative to anti-BTLA 7.1 mAb (100%) and buffer (0%); details: both partners purified
T1 construct: B and T lymphocyte attenuator (BTLA), human, fused to Fc; also called rhBTLA-Fc
T1 sequence (looked up): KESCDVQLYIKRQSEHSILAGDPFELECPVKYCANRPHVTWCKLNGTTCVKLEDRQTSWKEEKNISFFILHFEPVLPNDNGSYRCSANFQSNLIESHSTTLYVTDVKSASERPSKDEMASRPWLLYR

## N[C@@H](CS)C(=O)O [cysteine, reference compound]
[1]
  Blocking of BTLA/HVEM binding in cellular assay (GMFI, in words): blocked BTLA/HVEM complex formation
[2]
  Inhibition of BTLA/HVEM ligation in ELISA (in words): prevented partially the binding of HVEM

## N[C@@H](CSSC[C@H](N)C(=O)O)C(=O)O [cystine, reference compound]
[2]
  Inhibition of BTLA/HVEM ligation in ELISA (in words): the inhibitory properties were not observed

## CSCC[C@H](N)C(=O)O [methionine, reference compound]
[2]
  Inhibition of BTLA/HVEM ligation in ELISA (in words): the inhibitory properties were not observed

## Ac-ELCAGPVTRKVECTYGE-NH2 [Scrambled peptide, scrambled control of HVEM(23–39), Ac-…-NH2, reference compound]
[2]
  Inhibition of BTLA/HVEM ligation in ELISA (in words): has no effect
[3]
  Interaction with BTLA immobilised in microcolumn (in words): did not interact with BTLA immobilized in microcolumn
[4]
  Presence of free thiol groups: contains free thiol groups

## Ac-ELTGTVCEP-NH2 [HVEM(31–39), 9 amino acid-long HVEM fragment 31–39]
[2]
  Inhibition of BTLA/HVEM ligation in ELISA (in words): showed a lower percentage of inhibition than the HVEM(23–39)
[3]
  Elution [M+H]+1 (peptide signal in elution fraction = complex with BTLA formed; - = no signal): 989.3

## Ac-ELTGTVS^37EP-NH2 [HVEM(31–39) C37S, HVEM(31–39) analog with Cys37 replaced by serine]
[2]
  Inhibition of BTLA/HVEM ligation in ELISA (in words): no blocking capacity

## Ac-YRVKEACGELTGTVCEP-NH2 (disulfide 7-15 (inferred); SMILES CC(=O)N[C@@H](Cc1ccc(O)cc1)C(=O)N[C@@H](CCCNC(=N)N)C(=O)N[C@H](C(=O)N[C@@H](CCCCN)C(=O)N[C@@H](CCC(=O)O)C(=O)N[C@@H](C)C(=O)N[C@H]1CSSC[C@@H](C(=O)N[C@@H](CCC(=O)O)C(=O)N2CCC[C@H]2C(N)=O)NC(=O)[C@H](C(C)C)NC(=O)[C@H]([C@@H](C)O)NC(=O)CNC(=O)[C@H]([C@@H](C)O)NC(=O)[C@H](CC(C)C)NC(=O)[C@H](CCC(=O)O)NC(=O)CNC1=O)C(C)C) [HVEM(23–39) (C29-C37), cyclic HVEM(23–39) with disulfide bridge, oxidized cysteines]
[2]
  Inhibition of BTLA/HVEM ligation in ELISA (in words): no blocking of BTLA/HVEM interaction was observed
[3]
  Elution [M+H]+1 (peptide signal in elution fraction = complex with BTLA formed; - = no signal): 1893.9
  Interaction with BTLA immobilised in microcolumn (in words): interacted with BTLA in affinity test

## Ac-YRVKEACGELTGTVCEP-NH2 [HVEM(23–39), HVEM fragment 23–39, Ac-…-NH2, free sulfhydryl groups]
[1]
  Blocking of BTLA/HVEM binding in cellular assay (GMFI, in words): almost no blocking of the BTLA/HVEM binding was observed
[2]
  Inhibition of BTLA/HVEM ligation in ELISA (in words): can partially prevent the ligation of HVEM to BTLA, in a dose dependent manner
[3]
  Interaction with BTLA immobilised in microcolumn (in words): complex between BTLA and HVEM(23–39) was formed
[4]
  Presence of free thiol groups: observed free thiol groups
[4]; Ellman's assay, pH 7.4, peptide alone, 2 hours, suggests a fraction of the peptide is oxidized
  Concentration of free thiol groups after 2 hours of incubation, peptide alone: lower
[4]; Ellman's assay, pH 7.4, peptide mixed with recombinant BTLA-Fc (ratio 1:1)
  Concentration of free thiol groups over time, peptide incubated with BTLA-Fc: decrease in the concentration of free thiol groups over time, which was more pronounced than in the condition where the peptide was alone

## Ac-YRVKEAS^29GELTGTVCEP-NH2 [HVEM(23–39) C29S, HVEM(23–39) analog with Cys29 replaced by serine]
[3]
  Elution [M+H]+1 (peptide signal in elution fraction = complex with BTLA formed; - = no signal): 1879.7

## Ac-YRVKEAY^29GELTGTVCEP-NH2 [HVEM(23–39) C29Y, HVEM(23–39) analog with Cys29 replaced by tyrosine]
[3]
  Elution [M+H]+1 (peptide signal in elution fraction = complex with BTLA formed; - = no signal): 1955.7

## C29A: single alanine-substituted HVEM(23–39) variant, cysteine 29 replaced by alanine (Ac-YRVKEAAGELTGTVCEP-NH2)
[2]
  Inhibition of BTLA/HVEM ligation in ELISA (in words): significant reduction of the inhibition

## C37A: single alanine-substituted HVEM(23–39) variant, cysteine 37 replaced by alanine (Ac-YRVKEACGELTGTVAEP-NH2)
[2]
  Inhibition of BTLA/HVEM ligation in ELISA (in words): significant reduction of the inhibition

B1: HVEM(23–39) peptide (peptide)
peptide: YRVKEACGELTGTVCEP
modifications: not fully specified; N-terminal acetyl (Ac-); C-terminal amide (-NH2)
notes: herpes virus entry mediator (HVEM), human, residues 23-39 of the CRD1 domain; Linear, with two free sulfhydryl groups; also called HVEM(23–39) fragment; wild-type peptide HVEM(23–39); source: synthetic peptide (SPPS, RP-HPLC purified)
[5]
  binding result: binds

B2: HVEM(31–39) (peptide)
peptide: Ac-ELTGTVCEP-NH2
notes: herpes virus entry mediator (HVEM), human, residues 31-39; also called HVEM (31–39) fragment; source: synthetic peptide (SPPS, RP-HPLC purified)
[5]
  binding result: binds
